# From ChEMBL document CHEMBL2346657, “Synthesis of novel 2-amino-4-(5'-substituted 2'-phenyl-1H-indol-3'-yl)-6-aryl-4H-pyran-3-carbonitrile derivatives as antimicrobial and antioxidant agents” (2013)
# The source made the active and inactive calls. Unless noted, the calls are words filed in the database; no cut-off is given here.
# Assays:
# Type in all cases: functional
# [1] = system: Radical scavenging activity; experiment: Antioxidant activity assessed as DPPH radical scavenging activity at 75 ug/ml
# Pseudomonas aeruginosa [2] = experiment: Antimicrobial activity against Pseudomonas aeruginosa MTCC 1688 at 1000 ug/ml after 24 hrs by cup plate method; conditions: MTCC 1688, 24 h, read-out: IZ
# Aspergillus niger [3] = experiment: Antimicrobial activity against Aspergillus niger MTCC 281 at 750 ug/ml after 72 hrs by cup plate method; conditions: MTCC 281, 72 h, read-out: IZ
# Aspergillus oryzae [4] = experiment: Antimicrobial activity against Aspergillus oryzae MTCC 3567 at 750 ug/ml after 72 hrs by cup plate method; conditions: MTCC 3567, 72 h, read-out: IZ
# Aspergillus niger [5] = experiment: Antimicrobial activity against Aspergillus niger MTCC 281 at 1000 ug/ml after 72 hrs by cup plate method; conditions: MTCC 281, 72 h, read-out: IZ
# Aspergillus terreus [6] = experiment: Antimicrobial activity against Aspergillus terreus MTCC 1782 at 1000 ug/ml after 72 hrs by cup plate method; conditions: MTCC 1782, 72 h, read-out: IZ
# Aspergillus terreus [7] = experiment: Antimicrobial activity against Aspergillus terreus MTCC 1782 at 750 ug/ml after 72 hrs by cup plate method; conditions: MTCC 1782, 72 h, read-out: IZ
# Aspergillus oryzae [8] = experiment: Antimicrobial activity against Aspergillus oryzae MTCC 3567 at 500 ug/ml after 72 hrs by cup plate method; conditions: MTCC 3567, 72 h, read-out: IZ
# Aspergillus terreus [9] = experiment: Antimicrobial activity against Aspergillus terreus MTCC 1782 at 500 ug/ml after 72 hrs by cup plate method; conditions: MTCC 1782, 72 h, read-out: IZ
# Escherichia coli [10] = experiment: Antimicrobial activity against Escherichia coli MTCC 723 at 500 ug/ml after 24 hrs by cup plate method; conditions: MTCC 723, 24 h, read-out: IZ
# Pseudomonas aeruginosa [11] = experiment: Antimicrobial activity against Pseudomonas aeruginosa MTCC 1688 at 500 ug/ml after 24 hrs by cup plate method; conditions: MTCC 1688, 24 h, read-out: IZ
# Pseudomonas aeruginosa [12] = experiment: Antimicrobial activity against Pseudomonas aeruginosa MTCC 1688 at 750 ug/ml after 24 hrs by cup plate method; conditions: MTCC 1688, 24 h, read-out: IZ
# Klebsiella pneumoniae [13] = experiment: Antimicrobial activity against Klebsiella pneumoniae NCTC 13368 at 750 ug/ml after 24 hrs by cup plate method; conditions: NCTC 13368, 24 h, read-out: IZ
# Klebsiella pneumoniae [14] = experiment: Antimicrobial activity against Klebsiella pneumoniae NCTC 13368 at 1000 ug/ml after 24 hrs by cup plate method; conditions: NCTC 13368, 24 h, read-out: IZ
# Escherichia coli [15] = experiment: Antimicrobial activity against Escherichia coli MTCC 723 at 750 ug/ml after 24 hrs by cup plate method; conditions: MTCC 723, 24 h, read-out: IZ
# Staphylococcus aureus [16] = experiment: Antimicrobial activity against Staphylococcus aureus ATCC 29513 at 1000 ug/ml after 24 hrs by cup plate method; conditions: ATCC 29513, 24 h, read-out: IZ
# Escherichia coli [17] = experiment: Antimicrobial activity against Escherichia coli MTCC 723 at 1000 ug/ml after 24 hrs by cup plate method; conditions: MTCC 723, 24 h, read-out: IZ
# Staphylococcus aureus [18] = experiment: Antimicrobial activity against Staphylococcus aureus ATCC 29513 at 750 ug/ml after 24 hrs by cup plate method; conditions: ATCC 29513, 24 h, read-out: IZ
# Aspergillus flavus [19] = experiment: Antimicrobial activity against Aspergillus flavus MTCC 1973 at 500 ug/ml after 72 hrs by cup plate method; conditions: MTCC 1973, 72 h, read-out: IZ
# [20] = Antioxidant activity assessed as metal chelating activity by measuring inhibition of ferrozine-Fe2+ complex formation at 25 to 100 ug/ml
# Aspergillus flavus [21] = experiment: Antimicrobial activity against Aspergillus flavus MTCC 1973 at 750 ug/ml after 72 hrs by cup plate method; conditions: MTCC 1973, 72 h, read-out: IZ
# Aspergillus oryzae [22] = experiment: Antimicrobial activity against Aspergillus oryzae MTCC 3567 at 1000 ug/ml after 72 hrs by cup plate method; conditions: MTCC 3567, 72 h, read-out: IZ
# Aspergillus niger [23] = experiment: Antimicrobial activity against Aspergillus niger MTCC 281 at 500 ug/ml after 72 hrs by cup plate method; conditions: MTCC 281, 72 h, read-out: IZ
# Aspergillus flavus [24] = experiment: Antimicrobial activity against Aspergillus flavus MTCC 1973 at 1000 ug/ml after 72 hrs by cup plate method; conditions: MTCC 1973, 72 h, read-out: IZ
# Staphylococcus aureus [25] = experiment: Antimicrobial activity against Staphylococcus aureus ATCC 29513 at 500 ug/ml after 24 hrs by cup plate method; conditions: ATCC 29513, 24 h, read-out: IZ
# Klebsiella pneumoniae [26] = experiment: Antimicrobial activity against Klebsiella pneumoniae NCTC 13368 at 500 ug/ml after 24 hrs by cup plate method; conditions: NCTC 13368, 24 h, read-out: IZ
# [27] = Antioxidant activity assessed as ferric ion reducing activity at 75 ug/ml by FRAP assay
# [28] = system: Radical scavenging activity; experiment: Antioxidant activity assessed as DPPH radical scavenging activity at 100 ug/ml
SMILES,zone of inhibition at 1000 µg/mL (Pseudomonas aeruginosa [2]),zone of inhibition at 750 µg/mL (Aspergillus niger [3]),zone of inhibition at 750 µg/mL (Aspergillus oryzae [4]),zone of inhibition at 1000 µg/mL (Aspergillus niger [5]),zone of inhibition at 1000 µg/mL (Aspergillus terreus [6]),zone of inhibition at 750 µg/mL (Aspergillus terreus [7]),zone of inhibition at 500 µg/mL (Aspergillus oryzae [8]),zone of inhibition at 500 µg/mL (Aspergillus terreus [9]),zone of inhibition at 500 µg/mL (Escherichia coli [10]),zone of inhibition at 500 µg/mL (Pseudomonas aeruginosa [11]),zone of inhibition at 750 µg/mL (Pseudomonas aeruginosa [12]),zone of inhibition at 750 µg/mL (Klebsiella pneumoniae [13]),zone of inhibition at 1000 µg/mL (Klebsiella pneumoniae [14]),zone of inhibition at 750 µg/mL (Escherichia coli [15]),zone of inhibition at 1000 µg/mL (Staphylococcus aureus [16]),zone of inhibition at 1000 µg/mL (Escherichia coli [17]),zone of inhibition at 750 µg/mL (Staphylococcus aureus [18]),zone of inhibition at 500 µg/mL (Aspergillus flavus [19]),Activity [20],zone of inhibition at 750 µg/mL (Aspergillus flavus [21]),also measured
Nc1nc(=S)[nH]c2c1C(c1c(-c3ccccc3)[nH]c3ccc(Cl)cc13)C=C(c1ccc(Cl)cc1)O2 (centres undefined),11 mm,11 mm,10 mm,14 mm,3 mm,3 mm,9 mm,2 mm,10 mm,10 mm,10 mm,5 mm,8 mm,10 mm,13 mm,11 mm,13 mm,5 mm,Active,4 mm,Activity [1]: Active; zone of inhibition at 1000 µg/mL (Aspergillus oryzae [22]): 0 mm; zone of inhibition at 500 µg/mL (Aspergillus niger [23]): 11 mm; zone of inhibition at 1000 µg/mL (Aspergillus flavus [24]): 11 mm; zone of inhibition at 500 µg/mL (Staphylococcus aureus [25]): 13 mm; zone of inhibition at 500 µg/mL (Klebsiella pneumoniae [26]): 5 mm
Nc1nc(=O)[nH]c2c1C(c1c(-c3ccccc3)[nH]c3ccc(Cl)cc13)C=C(c1ccc(Cl)cc1)O2 (centres undefined),9 mm,12 mm,9 mm,13 mm,9 mm,9 mm,9 mm,9 mm,9 mm,9 mm,9 mm,9 mm,9 mm,10 mm,14 mm,10 mm,13 mm,6 mm,Active,6 mm,Activity [27]: Active; Activity [28]: 75.5%; zone of inhibition at 1000 µg/mL (Aspergillus oryzae [22]): 9 mm; zone of inhibition at 500 µg/mL (Aspergillus niger [23]): 12 mm; zone of inhibition at 1000 µg/mL (Aspergillus flavus [24]): 4 mm; zone of inhibition at 500 µg/mL (Staphylococcus aureus [25]): 13 mm; zone of inhibition at 500 µg/mL (Klebsiella pneumoniae [26]): 9 mm
Cc1ccc(C2=CC(c3c(-c4ccccc4)[nH]c4ccc(Cl)cc34)c3c(nc4oc(=O)c(C#N)c(N)c4c3N)O2)cc1 (centres undefined),2 mm,0 mm,10 mm,3 mm,3 mm,3 mm,10 mm,3 mm,12 mm,2 mm,2 mm,8 mm,8 mm,10 mm,3 mm,9 mm,3 mm,6 mm,Active,5 mm,Activity [1]: Active; zone of inhibition at 1000 µg/mL (Aspergillus oryzae [22]): 10 mm; zone of inhibition at 500 µg/mL (Aspergillus niger [23]): 0 mm; zone of inhibition at 1000 µg/mL (Aspergillus flavus [24]): 3 mm; zone of inhibition at 500 µg/mL (Staphylococcus aureus [25]): 5 mm; zone of inhibition at 500 µg/mL (Klebsiella pneumoniae [26]): 8 mm
